Source: US20070203233A1, “NOVEL 2-(alpha-N-PENTANONYL)BENZOATES, THEIR PREPARATION AND USE” (priority 2004, published 2007)
Marks after values point to notes of the source that are not given here.

Assays:
The Stability to Light = format: physicochemical; conditions: 10 days, HPLC
Thermal Stability = format: physicochemical; conditions: 60° C., 10 days, HPLC
[1] = system: model rats of middle cerebral artery thrombosis (MCAT); assay: Effects on neural symptoms of MCAT rats; format: in vivo, SD rats; set-up: key to Scores 6 hours / Scores 24 hours: 0/1 per test, summed (max 4); higher = more severe behavioral disorder; conditions: for Scores 6 hours: behavioral score 6 h after operation (full mark 4); for Scores 24 hours: behavioral score 24 h after operation (full mark 4); for % inhibition at hour 24: vs. model group
Description: (1) Grouping and administration: […] Preventive administration was conducted by gavage one time per day for 3 days prior to the model being established. The model was established on day 4, and a dosage of one day was administered by gavage immediately after the model was established. Another dosage of one day was again administered by gavage 12 hours after the model was established. Equivalent amount of the vehicle was administered to the control group. […] Description of technique and early neuropathological consequences following middle cerebral artery occlusion. J Cereb Blood Flow Metab, 1981, 1: 53), and fixed in lateral decubitus position. A bowtype incision of 1.5 cm long was made at the midpoint between canthus and exterior auditory canal. Temporalis was broken and incised to expose temporal bone. […] The filter paper was removed after 30 min when the vascular became black. The localized tissue was washed with physiological brine, and sutured layer by layer. Then rats were placed back into the cages. By following the modified method of Bederson et al. […] (2) The animals were placed onto a smooth ground, and the resistance of contralateral shoulder to push was examined. “0” was recorded if the resistance of both shoulders were equal and strong; and “1” was recorded if the resistance of contralateral shoulder to push was decreased. […] (4) The tail of the rat was lifted 30 cm high away from the ground, and “1” was recorded if the animals ceaselessly circled contralaterally. “4” was full mark in accordance with the above-mentioned standard. The higher the score was, more severe the behavioral disorder of the animal was. 4. Results: The behavioral scores in each group were compared by student t test.

[2] = system: model rats of middle cerebral artery thrombosis (MCAT); assay: Effects on cerebral infarct area of MCAT rats; format: in vivo, SD rats; conditions: for Cerebral infarct tissue weight/total brain weight (%): 24 h after operation, TTC staining; for Inhibition (%): cerebral infarct vs. model group; for cerebral infarct as compared with the model group (in words): 50 mg/kg, P<0.05
[3] = system: thrombus of artery-vein bypass in rats; assay: Effects on thrombosis of artery-vein bypass in rats; format: in vivo, SD rats; conditions: for Dry-weight of thrombus / Wet-weight of thrombus: once per day for 3 days; for Inhibition (%) of dry-weight of thrombus / Inhibition (%) of wet-weight of thrombus: vs. thrombus model group
Description: Testing methods are described in Chen-Qi, “Methodology for Pharmacological Research of Chinese Medicine”,People's Medical Publishing House, Sep. 1993, 1st ed., page 510. […] Equivalent amount of the vehicle was administered to the thrombus model group. The operation was conducted immediately after the final administration. […] The operation was conducted to separate the right common carotid artery and the left external jugular vein. A pre-weighed suture # 0 of 8 cm long was placed into the middle part of a polyethylene tube of 10 cm long. Then the tube was filled with normal saline, and connected at both ends to the cannula of 3 cm long filled with normal saline. One end of the tube was inserted into the left external jugular vein, and another end was inserted into the right common carotid artery. The blood flowed from the right common carotid artery to the polyethylene tube, and then flow back to the left external jugular vein, so as to construct a bypass circulation. […] The wet-weight of the thrombus was obtained by subtracting the weight of the suture and the paper from this total wet weight. […] The thrombus was taken out and weighed to obtain a total dry weight. The dry weight of the thrombus was obtained by subtracting the weight of the suture and the paper form this total dry weight. The results in each group were compared by student's t test. […] Testing Results

[4] = The Stability to Humidity (high humidity test); format: physicochemical; conditions: 10 days, HPLC purity
[5] = The Stability of Aqueous Solution; conditions: for wt % decomposed product: aqueous solution 0.2 mg/ml; for decomposed product detected (in words): after exposed to water for 24 hours
Description: Compounds were dissolved in water to form aqueous solutions in a concentration of 0.2 mg/ml, and the amount of decomposed products were measured.
The amounts of decomposed products were determined in accordance with the test described in Pharmacopoeia of P.R. China, 2000 edition, appendix VD of part two, by HPLC method, C18 column, mobile phase of acetonitrile:0.02M sodium dihydrogen phosphate=40:60, detecting wavelength of 230 nm, flow rate of 1 ml/min.

Row | SMILES | decomposed product detected, stability to light (in words) (The Stability to Light) | decomposed product detected, thermal stability (in words) (Thermal Stability) | Scores 6 hours ([1]; 50 mg/kg by gavage) | Scores 24 hours ([1]; 50 mg/kg by gavage) | Scores 6 hours ([1]; 100 mg/kg by gavage) | Scores 24 hours ([1]; 100 mg/kg by gavage) | Scores 6 hours ([1]; 200 mg/kg by gavage) | Scores 24 hours ([1]; 200 mg/kg by gavage) | Cerebral infarct tissue weight/total brain weight (%) ([2]; 50 mg/kg by gavage) | Inhibition (%) ([2]; 50 mg/kg by gavage) | cerebral infarct as compared with the model group (in words) [2] | Cerebral infarct tissue weight/total brain weight (%) ([2]; 100 mg/kg by gavage) | Inhibition (%) ([2]; 100 mg/kg by gavage) | Cerebral infarct tissue weight/total brain weight (%) ([2]; 200 mg/kg by gavage) | Inhibition (%) ([2]; 200 mg/kg by gavage) | wt % decomposed product ([5]; 0 hr) [wt %] | wt % decomposed product ([5]; 1 hr) [wt %] | wt % decomposed product ([5]; 2 hr) [wt %] | wt % decomposed product ([5]; 4 hr) [wt %] | wt % decomposed product ([5]; 16 hr) [wt %] | other results
1 | CCCCC(=O)c1ccccc1C(=O)O.CCCCC(=O)c1ccccc1C(=O)O.c1ccc(CNCCNCc2ccccc2)cc1 [2-(α-n-pentanonyl)benzoate of N,N′-dibenzylethylene diamine] | no decomposed product | no decomposed product | 3.45 ± 0.69 | 2.91 ± 0.70 | 3.45 ± 0.52 | 2.36 ± 0.67 | 3.27 ± 0.79 | 2.55 ± 0.52 | 5.14 ± 2.17 | 30.63 | significantly reduced | 4.68 ± 1.69 | 41.06 | 4.60 ± 1.26 | 39.55 |  |  |  |  |  | % inhibition at hour 24 ([1]; 50 mg/kg by gavage): 20.05%; % inhibition at hour 24 ([1]; 100 mg/kg by gavage): 36.73%; % inhibition at hour 24 ([1]; 200 mg/kg by gavage): 31.64%; Dry-weight of thrombus ([3]; 50 mg/kg by gavage): 39.0 ± 10.8 mg; Wet-weight of thrombus ([3]; 50 mg/kg by gavage): 207.1 ± 45.3 mg; Inhibition (%) of dry-weight of thrombus ([3]; 50 mg/kg by gavage): 23.98%; Inhibition (%) of wet-weight of thrombus ([3]; 50 mg/kg by gavage): 20.10%; Dry-weight of thrombus ([3]; 100 mg/kg by gavage): 29.9 ± 13.6 mg; Wet-weight of thrombus ([3]; 100 mg/kg by gavage): 157.9 ± 67.9 mg; Inhibition (%) of dry-weight of thrombus ([3]; 100 mg/kg by gavage): 41.72%; Inhibition (%) of wet-weight of thrombus ([3]; 100 mg/kg by gavage): 39.08%; Dry-weight of thrombus ([3]; 200 mg/kg by gavage): 32.3 ± 12.5 mg; Wet-weight of thrombus ([3]; 200 mg/kg by gavage): 191.7 ± 34.8 mg; Inhibition (%) of dry-weight of thrombus ([3]; 200 mg/kg by gavage): 37.04%; Inhibition (%) of wet-weight of thrombus ([3]; 200 mg/kg by gavage): 26.04%
2 | CCCCC(O)c1ccccc1C(=O)[O-].[K+] (stereo not drawn) [Potassium 2-(α-hydroxypentyl)benzoate] |  |  | 3.50 ± 0.71 | 3.30 ± 0.48 | 3.55 ± 0.52 | 3.00 ± 0.89 | 3.45 ± 0.52 | 2.73 ± 0.79 | 6.16 ± 2.46 | 16.87 |  | 5.73 ± 2.20 | 27.83 | 5.37 ± 2.00 | 29.43 | 0 | 0.2 | 0.36 | 0.75 | 4.5 | decomposition after absorbing moisture (in words) [4]: highly decomposed; wt % decomposed product ([5]; 24 hr): 5.3 wt %
3 | CCCCC(=O)c1ccccc1C(=O)[O-].[K+] [Potassium 2-(α-n-pentanonyl)benzoate, potassium 2-(α-n-pentanonyl)benzoate] | no decomposed product | no decomposed product | 3.27 ± 0.79 | 2.91 ± 0.70 | 3.36 ± 0.67 | 2.82 ± 0.75 | 3.20 ± 0.63 | 2.10 ± 0.32***^,s | 5.63 ± 1.52 | 24.02 | significantly reduced | 5.09 ± 2.04 | 35.89 | 4.38 ± 1.54 | 42.44 | 0 | 0 | 0 | 0 | 0 | Dry-weight of thrombus ([3]; 50 mg/kg by gavage): 38.3 ± 15.4 mg; Wet-weight of thrombus ([3]; 50 mg/kg by gavage): 208.8 ± 45.3 mg; Inhibition (%) of dry-weight of thrombus ([3]; 50 mg/kg by gavage): 25.34%; Inhibition (%) of wet-weight of thrombus ([3]; 50 mg/kg by gavage): 19.44%; Dry-weight of thrombus ([3]; 100 mg/kg by gavage): 35.6 ± 14.0 mg; Wet-weight of thrombus ([3]; 100 mg/kg by gavage): 192.6 ± 41.2 mg; Inhibition (%) of dry-weight of thrombus ([3]; 100 mg/kg by gavage): 30.60%; Inhibition (%) of wet-weight of thrombus ([3]; 100 mg/kg by gavage): 25.69%; Dry-weight of thrombus ([3]; 200 mg/kg by gavage): 28.3 ± 16.3 mg; Wet-weight of thrombus ([3]; 200 mg/kg by gavage): 157.0 ± 51.4 mg; Inhibition (%) of dry-weight of thrombus ([3]; 200 mg/kg by gavage): 44.83%; Inhibition (%) of wet-weight of thrombus ([3]; 200 mg/kg by gavage): 39.43%; decomposed product detected (in words) [5]: no decomposed product; wt % decomposed product ([5]; 24 hr): 0 wt %
4 | CCCCC(=O)c1ccccc1C(=O)[O-].[Na+] [Sodium 2-(α-n-pentanonyl)benzoate, sodium 2-(α-n-pentanonyl)benzoate] | no decomposed product | no decomposed product |  |  |  |  |  |  |  |  | significantly reduced |  |  |  |  | 0 | 0 | 0 | 0 | 0 | decomposed product detected (in words) [5]: no decomposed product; wt % decomposed product ([5]; 24 hr): 0 wt %
